US9346795B2, “Substituted sulfonamides useful as antiapoptotic Bcl inhibitors” (Bristol-Myers Squibb Company, priority 2011, dated 2016)
pIC50: −log10 of the molar value.

Tests used:
Bcl-2 = Bcl-2 (Homo sapiens (Human), UniProt P10415); experiment: Bcl-2/Bim Fluorescence Polarization Assay (FPA); format: binding
Procedure: Bcl-2/Bim Fluorescence Polarization Assay (FPA)
The assays were performed in black flat-bottom 384-well plates. […] The reaction was incubated at room temperature for 60 minutes and fluorescence polarization of the reaction was detected on the LJL Plate Reader. Inhibition data were calculated from mP values generated by the no protein control reactions for 100% inhibition and vehicle-only reactions for 0% inhibition. The final concentrations of reagents in the assay were 4.9 nM BCL-2, 5 nM fluoresceinated 18-mer BIM peptide and 1% DMSO. […] Compounds were dissolved at 10 mM in dimethylsulfoxide (DMSO) and evaluated at eleven concentrations. IC50 values were derived by non-linear regression analysis.

Bcl-xL = Bcl-xL (Homo sapiens (Human), UniProt Q07817); experiment: Bcl-xL/Bim Fluorescence Resonance Energy Transfer Assay (FRET); format: binding
Procedure: Bcl-xL/Bim Fluorescence Resonance Energy Transfer Assay (FRET) The assays were performed in black flat-bottom 384-well plates. The final assay volume was 55 μl prepared from additions of Biotin-Bcl-xL (Bcl-xL: GENBANK® Accession No. […] The reaction was incubated at room temperature for 60 minutes. After 60 minutes, 5 μL of Streptavidin-Terbium FRET detection reagent (Perkin Elmer) was added to the reaction mixture and incubated at room temperature in the dark for 30 mins. […] Compounds were dissolved at 10 mM in dimethylsulfoxide (DMSO) and evaluated at eleven concentrations. IC50 values were derived by non-linear regression analysis.

Sequence of Bcl-2 (P10415 whole entry): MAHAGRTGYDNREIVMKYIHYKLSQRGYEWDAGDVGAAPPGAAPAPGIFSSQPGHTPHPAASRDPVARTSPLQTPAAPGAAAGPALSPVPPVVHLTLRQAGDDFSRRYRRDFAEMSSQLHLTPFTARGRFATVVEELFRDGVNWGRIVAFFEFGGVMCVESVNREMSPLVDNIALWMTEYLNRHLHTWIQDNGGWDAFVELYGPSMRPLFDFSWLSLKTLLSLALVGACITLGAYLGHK
Sequence of Bcl-xL (Q07817 whole entry): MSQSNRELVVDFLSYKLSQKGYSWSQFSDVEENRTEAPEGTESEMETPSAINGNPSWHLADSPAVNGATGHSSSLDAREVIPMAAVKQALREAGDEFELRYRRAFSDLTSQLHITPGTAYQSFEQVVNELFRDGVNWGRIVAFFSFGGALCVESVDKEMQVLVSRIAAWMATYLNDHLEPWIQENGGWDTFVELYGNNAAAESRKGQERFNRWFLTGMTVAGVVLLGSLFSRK

SMILES | pIC50 (Bcl-2) | pIC50 (Bcl-xL)
CCCCN(CCCC)C(=O)c1nn(-c2ccc(C(=O)NS(=O)(=O)c3ccc4c(Cl)ccc(Cl)c4c3)cc2C(=O)N2CCc3ccccc3C2)c(C)c1Cl [Example 44, N,N-dibutyl-4-chloro-1-(4-(5,8-dichloronaphthalen-2-ylsulfonylcarbamoyl)-2-(1,2,3,4-tetrahydroisoquinoline-2-carbonyl)phenyl)-5-methyl-1H-pyrazole-3-carboxamide] | 8.14 | 7.52
CCCCN(CCCC)C(=O)c1nn(-c2ccc(C(=O)NS(=O)(=O)c3ccc4ccc(C(=O)N5CCN(C)CC5)cc4c3)cc2C(=O)N2CCc3ccccc3C2)c(C)c1Cl [Example 46, N,N-Dibutyl-4-chloro-5-methyl-1-(4-(7-(4-methylpiperazine-1-carbonyl)naphthalen-2-ylsulfonylcarbamoyl)-2-(1,2,3,4-tetrahydroisoquinoline-2-carbonyl)phenyl)-1H-pyrazole-3-carboxamide] | 7.05 | 7.40
CCCCN(CCCC)C(=O)c1nn(-c2ccc(C(=O)NS(=O)(=O)c3ccc4ccc(C(=O)N(C)C)cc4c3)cc2C(=O)N2CCc3ccccc3C2)c(C)c1Cl [Example 48, N,N-Dibutyl-4-chloro-1-(4-(7-(dimethylcarbamoyl)naphthalen-2-ylsulfonylcarbamoyl)-2-(1,2,3,4-tetrahydroisoquinoline-2-carbonyl)phenyl)-5-methyl-1H-pyrazole-3-carboxamide] | 6.82 | 7.10
CCCCN(CCCC)C(=O)c1nn(-c2ccc(C(=O)NS(=O)(=O)c3ccc4c(c3)CCN4CC)cc2C(=O)N2CCc3ccccc3C2)c(C)c1Cl [Example 53, N,N-dibutyl-4-chloro-1-(4-(1-ethylindolin-5-ylsulfonylcarbamoyl)-2-(1,2,3,4-tetrahydroisoquinoline-2-carbonyl)phenyl)-5-methyl-1H-pyrazole-3-carboxamide] | 7.22 | 8.00
CCCCN(CCCC)C(=O)c1nn(-c2ccc(C(=O)NS(=O)(=O)c3ccc4c(c3)CCN4C(=O)C3CCCCC3)cc2C(=O)N2CCc3ccccc3C2)c(C)c1Cl [Example 55, N,N-dibutyl-4-chloro-1-(4-(1-(cyclohexanecarbonyl)indolin-5-ylsulfonylcarbamoyl)-2-(1,2,3,4-tetrahydroisoquinoline-2-carbonyl)phenyl)-5-methyl-1H-pyrazole-3-carboxamide] | 6.60 | 6.64
CCCCN(CCCC)C(=O)c1nn(-c2ccc(C(=O)NS(=O)(=O)c3ccc4c(c3)CCN4Cc3ccc(Cl)c(Cl)c3)cc2C(=O)N2CCc3ccccc3C2)c(C)c1Cl [Example 59, N,N-dibutyl-4-chloro-1-(4-(1-(3,4-dichlorobenzyl)indolin-5-ylsulfonylcarbamoyl)-2-(1,2,3,4-tetrahydroisoquinoline-2-carbonyl)phenyl)-5-methyl-1H-pyrazole-3-carboxamide] | 7.70 | 7.40
CCCCN(CCCC)C(=O)c1nn(-c2ccc(C(=O)NS(=O)(=O)c3ccc4c(c3)CCN4C(=O)Cc3ccc(Cl)c(Cl)c3)cc2C(=O)N2CCc3ccccc3C2)c(C)c1Cl [Example 64, N,N-dibutyl-4-chloro-1-(4-(1-(2-(3,4-dichlorophenyl)acetyl)indolin-5-ylsulfonylcarbamoyl)-2-(1,2,3,4-tetrahydroisoquinoline-2-carbonyl)phenyl)-5-methyl-1H-pyrazole-3-carboxamide] | 6.70 | 5.61
CCCCN(CCCC)C(=O)c1nn(-c2ccc(C(=O)NS(=O)(=O)c3ccc4c(c3)CCN4CCSc3ccccc3)cc2C(=O)N2CCc3ccccc3C2)c(C)c1Cl [Example 67, N,N-dibutyl-4-chloro-5-methyl-1-(4-(1-(2-(phenylthio)ethyl)indolin-5-ylsulfonylcarbamoyl)-2-(1,2,3,4-tetrahydroisoquinoline-2-carbonyl)phenyl)-1H-pyrazole-3-carboxamide] | 7.30 | 7.22

Now from value to compound:

pIC50 (Bcl-2) | pIC50 (Bcl-xL) | SMILES
7.30 | 6.96 | CCCCN(CCCC)C(=O)c1nn(-c2ccc(C(=O)NS(=O)(=O)c3ccc4c(ccn4Cc4ccc(Cl)c(Cl)c4)c3)cc2C(=O)N2CCc3ccccc3C2)c(C)c1Cl [Example 68, N,N-dibutyl-4-chloro-1-(4-(1-(3,4-dichlorobenzyl)-1H-indol-5-ylsulfonylcarbamoyl)-2-(1,2,3,4-tetrahydroisoquinoline-2-carbonyl)phenyl)-5-methyl-1H-pyrazole-3-carboxamide]
6.47 | 7.22 | CCCCN(CCCC)C(=O)c1nn(-c2ccc(C(=O)NS(=O)(=O)c3ccc4c(c3)CCN4C(=O)N3CCOCC3)cc2C(=O)N2CCc3ccccc3C2)c(C)c1Cl [Example 74, N,N-dibutyl-4-chloro-5-methyl-1-(4-(1-(morpholine-4-carbonyl)indolin-5-ylsulfonylcarbamoyl)-2-(1,2,3,4-tetrahydroisoquinoline-2-carbonyl)phenyl)-1H-pyrazole-3-carboxamide]
6.41 | 7.52 | CCCCN(CCCC)C(=O)c1nn(-c2ccc(C(=O)NS(=O)(=O)c3ccc4c(ccn4CCCN4CCOCC4)c3)cc2C(=O)N2CCc3ccccc3C2)c(C)c1Cl [Example 82, N,N-dibutyl-4-chloro-5-methyl-1-(4-(1-(3-morpholinopropyl)-1H-indol-5-ylsulfonylcarbamoyl)-2-(1,2,3,4-tetrahydroisoquinoline-2-carbonyl)phenyl)-1H-pyrazole-3-carboxamide]
7.70 | 7.40 | CCCCN(CCCC)C(=O)c1nn(-c2ccc(C(=O)NS(=O)(=O)c3ccc4c(c3)c(Cl)cn4CC)cc2C(=O)N2CCc3ccccc3C2)c(C)c1Cl [Example 83, N,N-dibutyl-4-chloro-1-(4-(3-chloro-1-ethyl-1H-indol-5-ylsulfonylcarbamoyl)-2-(1,2,3,4-tetrahydroisoquinoline-2-carbonyl)phenyl)-5-methyl-1H-pyrazole-3-carboxamide]
8.11 | 7.10 | CCCCN(CCCC)C(=O)c1nn(-c2ccc(C(=O)NS(=O)(=O)c3ccc4c(c3)c(I)cn4CC)cc2C(=O)N2CCc3ccccc3C2)c(C)c1Cl [Example 84, N,N-dibutyl-4-chloro-1-(4-(1-ethyl-3-iodo-1H-indol-5-ylsulfonylcarbamoyl)-2-(1,2,3,4-tetrahydroisoquinoline-2-carbonyl)phenyl)-5-methyl-1H-pyrazole-3-carboxamide]
8.38 | 7.70 | CCCCN(CCCC)C(=O)c1nn(-c2ccc(C(=O)NS(=O)(=O)c3cc(Br)c4c(c3)c(Br)cn4CC)cc2C(=O)N2CCc3ccccc3C2)c(C)c1Cl [Example 85, N,N-dibutyl-4-chloro-1-(4-(3,7-dibromo-1-ethyl-1H-indol-5-ylsulfonylcarbamoyl)-2-(1,2,3,4-tetrahydroisoquinoline-2-carbonyl)phenyl)-5-methyl-1H-pyrazole-3-carboxamide]
8.08 | 8.00 | CCCCN(CCCC)C(=O)c1nn(-c2ccc(C(=O)NS(=O)(=O)c3ccc4ccccc4c3)cc2C(=O)N2Cc3ccccc3C[C@H]2CN)c(C)c1Cl [Example 92, 1-(2-((S)-3-(Aminomethyl)-1,2,3,4-tetrahydroisoquinoline-2-carbonyl)-4-(naphthalen-2-ylsulfonylcarbamoyl)phenyl)-N,N-dibutyl-4-chloro-5-methyl-1H-pyrazole-3-carboxamide]
